According to US11535670B2, “Combination therapies of HDAC inhibitors and PD-L1 inhibitors” (HUYABIO International, LLC, priority 2016, dated 2022):

Key:
[1] = tested on: MC38 murine colon carcinoma; assay: Example 3: second-line therapy of MC38 tumors progressing after first-line PD-1 inhibitor antibody, response rates; assay type: in vivo, C57BL/6 mice; conditions: second-line after failing PD-1 inhibitor antibody; HBI-8000 50 mg/kg p.o. qd×21; antibodies 5 mg/kg i.p. biwk×2 (Table 4: biwk × 3)
Description: In this model, a proportion of the animals treated 1st line with the PD-1 checkpoint inhibitor antibody experience complete tumor regression. However, a similar proportion of animals treated 1st line with the PD-1 inhibitor antibody experience rapid tumor progression. The balance of the animals treated in this way experience slow tumor progression or stable disease, which is a result which approximates the situation in a number of human cancer patients receiving PD-1 inhibitor antibody therapy, i.e., they experience a transient partial response, including stable disease, but then develop resistance and rapidly progress, failing PD-1 inhibitor antibody therapy. In this example, the efficacy of HBI-8000 (DZ1) as a second-line therapy, alone and in combination with PDL-1 inhibitor antibody 10F.9G2 (anti-PDL-1), was evaluated for the ability to cause tumor growth delay (TGD) in animals which tumors progressed following PD-1 inhibitor antibody first line of therapy in the MC38 murine colon carcinoma syngeneic model in immunocompetent C57BL/6 mice.
Female C57BL/6 mice bearing subcutaneous MC38 tumors (mean tumor volume: 114 mm^3 when treatment began) were treated with a first line of therapy of PD-1 inhibitor antibody treatment, administered intraperitoneally (i.p.) at 5 mg/kg, twice weekly for two weeks (biwk×2). […] Dosing began on Dl, which represented the day of recruitment and varied among mice (this was normalized for each group). The second line therapies were as follows. Vehicle was administered orally (p.o.). HBI-8000 was administered p.o. at 50 mg/kg. PD-1 inhibitor antibody and anti-PDL-1 were each administered intraperitoneally (i.p) at 5 mg/kg. Group 1 mice served as controls and received 0.2% carboxymethyl cellulose: 0.1% Tween 80 in deionized water (vehicle) once daily for twenty-one days (qd×21). Group 2 received HBI-8000 qd×21. Group 3 received a second course of PD-1 inhibitor antibody biwk×2. Group 4 received HBI-8000 qd×21 and PD-1 inhibitor antibody biwk×2. Group 5 received anti-PDL-1 biwk×2. Group 6 received HBI-8000 qd×21 and anti-PDL-1 biwk×2. […]

[2] = oral administration; cited from earlier work
[3] = tested on: MC38 murine colon carcinoma; assay: Example 2: tumor growth delay in MC38 syngeneic model, HBI-8000 alone and with PD-L1 inhibitor antibody; assay type: in vivo, C57BL/6 mice; conditions: HBI-8000 50 mg/kg p.o. qd×21, anti-PDL-1 5 mg/kg i.p. biwk×3
Procedure: In the present example, HBI-8000 was tested as monotherapy and in combination with PD-L1 inhibitor antibody at 5 mg/kg. The experiment included a vehicle-treated group and a PD-L1 inhibitor antibody monotherapy group, which served as the control groups for analysis of efficacy. Tumors were measured twice per week until the study was ended on Day 50. Each animal was euthanized when its tumor attained the endpoint tumor volume of 1000 mm^3 or on the final day of the study, whichever came first, and the time to endpoint (TTE) for each mouse was calculated. Treatment response was determined from an analysis of percent tumor growth delay (% TGD), defined as the percent increase in the median time to endpoint (TTE) for treated versus control mice; and by logrank significance of differences in survival among groups and regression responses.
Mice: Details of the animals used in this example can be found in Example 1.
Tumor Cell Culture: Details of the tumor cells used in this example can be found in Example 1.
Tumor Implantation and Measurement: Details of tumor implantation and measurement of tumor growth used in this example can be found in paragraph Example 1. […]
Statistics: Details of the statistics and software used in this study can be found in Example 1. […] Table 3.1 describes the values calculated for TTE and % TGD for each treatment group.

Nc1cc(F)ccc1NC(=O)c1ccc(CNC(=O)/C=C/c2cccnc2)cc1 [HBI-8000, N-(2-amino-4-fluorophenyl)-4-[[[(2E)-1-oxo-3-(3-pyridinyl)-2-propen-1-yl]amino]methyl]benzamide]
Response rate: CR (complete response) [1]: 20%
Response rate: NR (no response) [1]: 40%
Response rate: PR (partial response) [1]: 40%
t1/2 [2]: about 17 hours
Median TTE ([3]; endpoint 1000 mm^3 or Day 50): 28.4 days
% TGD ([3]; versus vehicle): 62%
